Test results from PMC12325182, “Discovery of novel and potent celastrol derivatives as PRDX1 inhibitors for cancer therapy through structure-based virtual screening” (Frontiers in Pharmacology, 2025).

Columns and labels:
A549 lung cancer cells = assay: MTT assay; format: cell-based
Experimental: (§1) Cells were seeded in 96-well plates at 5 ×10^4 cells/well and cultured overnight at 37°C under 5% CO2. After medium removal, cells were treated with serially diluted compounds (0.04–163.84 μM) or vehicle control (0.1% DMSO) and incubated for 72 h. Subsequently, 20 μL of MTT solution (5 mg/mL) was added to each well, and incubation was continued for 4 h. Add 150 μL of DMSO and shake for 10 min to fully dissolve the crystal. Finally, the absorbance was measured at 570 nm using a microplate reader. Cell viability was calculated as (ODcompound - ODblank)/(ODvehicle - ODblank) × 100%. The half inhibitory concentration (IC50) was calculated from the dose-response curve using Prism 8.0 software. Three independent replicate experiments were performed.

[1] = tested on: HepG2 (hepatocellular carcinoma cells); assay: MTT assay; format: cell-based; settings: Homo sapiens, HepG2; MTT, 72 h; mean ± SD, n = 3; read-out: IC50 (μM) HepG2
Experimental: as §1

[2] = target: other PRDX family members and a panel of kinases; assay: Kinase selectivity assay (whole panel); format: biochemical; settings: whole panel of Table S1; read-out: IC50 against other PRDX family members and a panel of kinases
Experimental: The selectivity of CP1 for PRDX1 was evaluated through kinase selectivity assays against other PRDX family members and a panel of kinases. The experiments were conducted by ICE Biosciences (Beijing, China).

CC1=C(CC(=O)/C=C/c2cccc(CO)c2)C(=O)C=C2C1=CC=C1[C@@]2(C)CC[C@@]2(C)C3C[C@](C)(C(=O)CCc4nc(C(O)C(O)O)c(C)nc4C)CC[C@]3(C)CC[C@]12C (stereo partly shown) [CP1]
IC50 (A549 lung cancer cells; Homo sapiens, A549, MTT, 72 h, mean ± SD, n = 3, read-out: IC50 (μM) A549): 0.22 ± 0.01 µM
improvement of antiproliferative activity against A549 cells compared to celastrol (A549 lung cancer cells; ratio of IC50 values): approximately 5 fold
IC50 [1]: 0.25 ± 0.02 µM
IC50 [2]: > 30 µM
